This note sets out measurements from patent EP2149554A1, “Indolyamides as modulators for an EP2 receptor” (Bayer Schering Pharma Aktiengesellschaft, priority 2008, dated 2010).

The test system of assay [1] is Kumulus-Eizell Komplexe. Kind of assay: cumulus expansion test in vitro. The class given is cell-based, Mäusen (Stamm : CD1 (ICR)). The note with it: competing with PGE2. An excerpt: Im prä-ovulatorischen antralen Follikel ist die Eizelle von Kumulus Zellen umgeben, die einen dichten Zellkranz um die Eizelle bilden. Nach dem LH-Peak (Lutenisierendes Hormon) wird eine Reihe von Prozessen aktiviert, die eine starke morphologische Veränderung dieses Zellkranzes aus Kumulus Zellen zur Folge hat. Hierbei bilden die Kumulus Zellen eine extrazelluläre Matrix, die zur sogenannten Kumulus Expansion führt (Vanderhyden et al. Dev Biol. 1990 Aug;140(2):307-317). Diese Kumulus Expansion ist ein wichtiger Bestandteil des ovulatorischen Prozesses und der nachfolgenden Möglichkeit zur Fertilisation. Bei der Kumulus Expansion sind Prostaglandine und hier das Prostaglandin E2, dessen Synthese durch den LH-Peak induziert wird, von entscheidender Bedeutung. Prostanoid EP2 Knock-out Mäuse (Hizaki et al. Proc Natl Acad Sci U S A. 1999 Aug 31 ;96(18):10501-6.) zeigen eine deutlich verminderte Kumulus Expansion und starke Subfertilität, was die Bedeutung des Prostanoid EP2-Rezeptors für diesen Prozess demonstriert.
2.2. Kumulus Expansions Test in vitro
In immaturen weiblichen Mäusen (Stamm : CD1 (ICR) von Charles River) wurde in einem Alter von 14 - 18 Tagen die Follikulogenese durch eine einmalige Gabe (intraperitoneal) von 10 I.E. PMSG (Pregnant Mare Serum Gonadotropine; Sigma G-4877, Lot 68H0909) induziert. […]

Assay [2] concerns the target T1, EP2-Subtyp des humanen PGE2-Rezeptors (Homo sapiens, UniProt P43116).
T1 construct: host or cells: cells in a culture plate
Kind of assay: cAMP antagonism test (HTRF cAMP detection, in presence of PGE2). The class given is cell-based. The note with it: cAMP Antagonismustest; PGE2 as agonist; read-out: Antagonismus [IC50. The source says:
1. Nachweis des Antagonismus des humanen Prostaglandin E2 (Subtyp EP2) Rezeptorsignals
(§1) Die Bindung von PGE2 an den EP2-Subtyp des humanen PGE2-Rezeptors induziert die Aktivierung membranständiger Adenylatzyklasen und führt zur Bildung von cAMP. In Gegenwart des Phosphodiesteraseinhibitors IBMX wird das durch diese Stimulation akkumulierte und mittels Zell-Lyse freigesetzte cAMP in einem kompetitiven Nachweisverfahren eingesetzt. In diesem Test konkurriert das cAMP im Lysat mit cAMP-XL665 um die Bindung eines Eu-Kryptat markierten Anti-cAMP Antikörpers.
(§2) Dabei entsteht in Abwesenheit von zellulärem cAMP ein maximales Signal, welches auf der Kopplung dieses Antikörpers an das cAMP-XL665 Molekül beruht. Dadurch entsteht nach Anregung bei 337 nm ein auf FRET (fluorescence resonance energy transfer) basierendes, langanhaltendes Emissionssignal bei 665 nm (und bei 620 nm). Beide Signale werden in einem geeigneten Messgerät zeitlich versetzt, d.h. nach Abklingen der Hintergrundsfluoreszenz gemessen. Jegliche Erhöhung des durch Prostglandin-E2-Gabe bedingten niedrigen FRET-Signals (gemessen als Well-Ratio-Veränderung = Emission665nm/Emission620nm * 10000) zeigt die Wirkung von Antagonisten.
1.2.1. Test auf Antagonismus (Angaben pro Vertiefung einer 384-Loch-Platte):
Die in einer Testplatte und 30 % DMSO vorgelegten Substanzlösungen (0.75 µl) wurden in 16 µl einer KRSB+IBMX-Stimulationslösung gelöst (1 X Krebs-Ringer Bicarbonate Buffer; Sigma-Aldrich # K-4002; inklusive 750 µM 3-Isobutyl-1-methylxanthine Sigma-Aldrich # I-7018), anschließend wurden 15 µl davon in eine medienfreie Zellkulturplatte überführt, die kurz zuvor mit KRSB gewaschen worden war.
Nach einer 30-minütigen Vorinkubation bei Raumtemperatur (RT) wurden 5 µl einer 4xPGE2 Lösung (11 nM) zugegeben und in Gegenwart des Agonisten für weitere 60 min bei RT inkubiert (Volumen: ∼ 20 µl), bevor die Reaktion anschließend durch Zugabe von 5 µl Lysispuffer gestoppt und für weitere 20 min bei RT inkubiert wird (Volumen: ∼ 25 µl). Das Zell-Lysat wurde anschließend in eine Messplatte überführt und entsprechend den Herstellerangaben (cyclic AMP kit Cisbio International # 62AMPPEC) gemessen.

Assay [3] deals with T1, EP2-Subtyp des humanen PGE2-Rezeptors. Kind of assay: cellular agonism test (HTRF cAMP detection, without PGE2). The class given is cell-based.
Excerpt: as §1, §2
1.2.2. Test auf Agonismus (Angaben pro Vertiefung einer 384-Loch-Platte): […]

T1 sequence (P43116 whole entry): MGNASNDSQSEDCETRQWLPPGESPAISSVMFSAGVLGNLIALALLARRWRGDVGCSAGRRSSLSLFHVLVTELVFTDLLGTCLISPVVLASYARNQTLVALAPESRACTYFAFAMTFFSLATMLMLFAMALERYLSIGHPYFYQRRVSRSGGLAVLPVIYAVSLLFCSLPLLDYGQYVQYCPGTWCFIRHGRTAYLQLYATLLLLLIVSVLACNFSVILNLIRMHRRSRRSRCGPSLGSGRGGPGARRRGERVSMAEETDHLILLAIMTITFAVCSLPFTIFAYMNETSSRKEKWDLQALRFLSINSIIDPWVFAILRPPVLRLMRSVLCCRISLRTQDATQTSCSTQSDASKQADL

`CC(C)Oc1ccc2c(=O)c3cc(C(=O)O)ccc3oc2c1` [AH 6809, reference compound]: in assay [1] (100 - 200 µM), the “Unterdrückung der Kumulus Expansion” value is on record as “ca. 30%”.
For the compound `Cc1[nH]c2c(F)ccc(C)c2c1CCNC(=O)c1cc2cc(C(=O)NCCC(N)=O)ccc2[nH]1` [Beispiel 5, 1H-Indol-2,5-dicarbonsäure 5-[(2-carbamoyl-ethyl)-amid] 2-{[2-(7-fluor-2,4-dimethyl-1H-indol-3-yl)-ethyl]-amid}], the IC50 in assay [2] came out at 297 nM.
As for `Cc1[nH]c2c(F)ccc(C)c2c1CCNC(=O)c1cc2ccc(C(=O)NCC(N)=O)cc2[nH]1` [Beispiel 6, 1H-Indol-2,6-dicarbonsäure 6-carbamoylmethyl-amid 2-{[2-(7-fluor-2,4-dimethyl-1H-indol-3-yl)-ethyl]-amid}], in assay [2], the 50% inhibitory concentration (IC50) was found to be 22 nM. In addition, the “Wirkung im zellulären Agonismustest” value in assay [3] is “keine Inhibition”. In assay [1] (5 µM), the “Unterdrückung der Kumulus Expansion” value is listed as “ca. 67%”.
On to `Cc1[nH]c2c(F)ccc(C)c2c1CCNC(=O)c1cc2ccc(C(=O)NCC(C)(C)CO)cc2[nH]1` [Beispiel 8, 1H-Indol-2,6-dicarbonsäure 2-{[2-(7-fluor-2,4-dimethyl-1H-indol-3-yl)-ethyl]-amid} 6-[(3-hydroxy-2,2-dimethyl-propyl)-amid]], for which the concentration for half-maximal inhibition (IC50) in assay [2] came out at 122 nM.
The same measure, in the same setting: to `Cc1[nH]c2c(F)ccc(C)c2c1CCNC(=O)c1cc2ccc(C(=O)NCCC(N)=O)cc2[nH]1` [Beispiel 10, 1H-Indol-2,6-dicarbonsäure 6-[(2-carbamoyl-ethyl)-amid] 2-{[2-(7-fluor-2,4-dimethyl-1H-indol-3-yl)-ethyl]-amid}] belongs 46 nM.
